Data as given in EP0906100B1, “USE OF 5-HT 1A? RECEPTOR ANTAGONISTS FOR THE TREATMENT OF URINARY INCONTINENCE” (RECORDATI S.A., priority 1996, dated 1997).

Columns and labels:
[1] = test system: rhythmic bladder voiding contractions; experiment: Volume-induced rhythmic bladder voiding contractions in anaesthetized rats; assay type: in vivo; details: for AMPLITUDE mm Hg before treatment / FREQUENCY No. contr./15 min before treatment: baseline; for AMPLITUDE mm Hg before treatment / AMPLITUDE mm Hg after treatment: animals with frequency reduction <50%; for AMPLITUDE mm Hg before treatment / FREQUENCY No. contr./15 min before treatment / AMPLITUDE mm Hg after treatment / FREQUENCY No. contr./15 min after treatment: mean±S.E.; for BLADDER CONTRACTIONS Disappearance time: duration of bladder quiescence, mean (S.E. in next cell)
Procedure: Female Sprague Dawley rats weighing 225-275 g (Crl: CD° BR, Charles River Italia) were used. The animals were housed with free access to food and water and were maintained on a forced 12 h alternating light-dark cycle at 22-24°C for at least one week, except during the experiment. The activity on the rhythmic bladder voiding contractions was evaluated according to the method of Dray (J. Pharmcol. Methods, 13:157, 1985), with some modifications as in Guarneri (Phannacol. Res., 27:173, 1993). […] The catheter was tied in place with a ligature around the external urethral orifice and was connected with conventional pressure transducers (Statham P23 ID/P23 XL). […] The bladder was then filled via the recording catheter by incremental volumes of warm (37°C) saline until reflex bladder voiding contractions occurred (usually 0.8-1.5 ml). Two parameters were recorded from the cystometrogram: the frequency of voiding contractions, calculated by counting the number of peaks/15 min of observation, and the mean amplitude of these contractions (mean height of the peaks in mmHg) in the same time period. For intravenous (i. v. ) injection of bioactive compounds, a PE 50 polyethylene tubing filled with physiological saline was inserted into the jugular vein.
Bioactivity was assessed in individual animals (using 6-10 rats per dose), by recording the number and height of the peaks for 15 min after drug injection and comparing them with those previously recorded for 15 min after the intravenous administration of vehicle alone. […] The statistical significance of changes in frequency and amplitude before and after treatment was assessed by Student's t test for paired data. Changes showing a probability P<0.01 were considered significant.
An all-or-none criterion was also used to compare bioactivity in terms of ED50 values. Rats showing a treatment-related change of ≥30% relative to the basal value were considered to be positive. Quantal dose-response curves and ED50 values were evaluated by the method of Bliss (J. Pharm. Pharmacol., 11:192, 1938).
The rapid distension of the urinary bladder in urethane-anaesthetized rats produced a series of rhythmic bladder voiding contractions whose characteristics have been described (Maggie et al., Brain Res., 380, 83, 1986; Maggi, et al., J. Pharmacol. Exp. Ther., 230, 500, 1984). The frequency of these contractions is related to the sensory afferent arm of reflex micturition and to the integrity of the micturition centre, while their amplitude is a property of the efferent arm of the reflex (Maggi et al., J. Pharmacol. Meth., 15, 157, 1986; Maggi et al., Brain Res.. 415, 1, 1987; Maggi et al., Naun. Schmied. Arch. Pharmacol., 332, 276, 1986; Maggi et al., J. Urol., 136, 696, 1986).

[2] = test system: cystometric parameters (bladder volume capacity, micturition pressure); experiment: Cystometric parameters (BVC, MP) in the conscious rat; assay type: in vivo, rats; details: for BVC before treatment / MP before treatment: baseline; for BVC before treatment / MP before treatment / BVC after treatment / MP after treatment: mean±S.E.; for BVC % change / MP % change / BVC after treatment / MP after treatment: 15 min after injection
Procedure: Male Sprague Dawley rats (Crl: CD° BR) weighing 250-350 g were used. The animals were housed with free access to food and water and maintained on a forced 12 h alternating light-dark cycle at 22-24°C for at least one week, except during performance of the experiment.
An approximately 10 mm long midline incision was made in the shaved and cleaned abdominal wall. The urinary bladder was gently freed from adhering tissues, emptied, and then cannulated, via an incision at the dome, with a polyethylene cannula (Portex PP30), which was permanently sutured with silk thread. The cannula was exteriorized through a subcutaneous tunnel in the retroscapular area, where it was connected with a plastic adapter to avoid the risk of removal by the animal. For intravenous (i.v.) injection of test compounds, a PE 50 polyethylene tubing filled with physiological saline was inserted into the jugular vein and exteriorized in the retroscapular area.
Since cystometrographic parameters have been reported to be influenced by the time elapsed after catheter implantation […].
On the day of the experiment, the rats were placed in Bollman's cages; after a stabilization period of 20 min, the free tip of the bladder catheter was connected through a T-shaped tube to a pressure transducer (Bentley T 800/Marb P 82) and to a peristaltic pump (Gilson minipuls 2) for a continuous infusion, at the constant rate of 0.1 ml/min, of saline solution into the urinary bladder. The intraluminal pressure signal during infusion was continuously recorded on a polygraph (Battaglia Rangoni KO 380 with ADC1/T amplifier). Two urodynamic parameters were evaluated: bladder volume capacity (BVC) and micturition pressure (MP). BVC (in ml) is defined as the minimum volume infused after which detrusor contraction (followed by micturition) occurs. MP (in mmHg) is defined as the maximal intravesical pressure induced by the contraction of detrusor during micturition. Basal BVC and MP values were calculated as the means of the first two recorded cystometrograms. At this point, the infusion was interrupted and the test compounds were administered. Fifteen minutes after intravenous administration, or one hour after oral drug administration, two additional cystometrograms were recorded in each animal and the mean values of the two cystometrographic parameters were calculated.
The statistical significance of the differences in urodynamic parameter values was evaluated by Student's t test for paired data. Only changes showing a probability P<0.01 were considered to be significant.

## Cc1c(-c2ccccc2)oc2c(C(=O)OCCN3CCCCC3)cccc2c1=O [Flavoxate, flavoxate]
[1]; 300 µg/kg i.v. group
  AMPLITUDE mm Hg before treatment: 25.9±1.3 mm Hg
  FREQUENCY No. contr./15 min before treatment: 9.2±1.2 No. contr./15 min
[1]; 300 µg/kg i.v.
  AMPLITUDE mm Hg after treatment: 24.1±1.8 mm Hg
  BLADDER CONTRACTIONS Disappearance time: 1.70 min
  FREQUENCY No. contr./15 min after treatment: 8.8±1.7 No. contr./15 min
[1]; 1000 µg/kg i.v. group
  AMPLITUDE mm Hg before treatment: 26.1±2.3 mm Hg
  FREQUENCY No. contr./15 min before treatment: 10.1±0.7 No. contr./15 min
[1]; 1000 µg/kg i.v.
  AMPLITUDE mm Hg after treatment: 25.0±2.2 mm Hg
  BLADDER CONTRACTIONS Disappearance time: 3.04 min
  FREQUENCY No. contr./15 min after treatment: 8.6±0.9 No. contr./15 min
[1]; 3000 µg/kg i.v. group
  AMPLITUDE mm Hg before treatment: 18.9±0.9 mm Hg
  FREQUENCY No. contr./15 min before treatment: 10.7±0.7 No. contr./15 min
[1]; 3000 µg/kg i.v.
  AMPLITUDE mm Hg after treatment: 16.6±1.2 mm Hg
  BLADDER CONTRACTIONS Disappearance time: 5.30 min
  FREQUENCY No. contr./15 min after treatment: 6.5±0.7 No. contr./15 min
[1]; 10000 µg/kg i.v. group
  AMPLITUDE mm Hg before treatment: 19.9±1.6 mm Hg
  FREQUENCY No. contr./15 min before treatment: 11.3±0.8 No. contr./15 min
[1]; 10000 µg/kg i.v.
  AMPLITUDE mm Hg after treatment: 19.2±1.5 mm Hg
  BLADDER CONTRACTIONS Disappearance time: 8.25 min
  FREQUENCY No. contr./15 min after treatment: 5.5±0.6 No. contr./15 min
[1]; 10000 µg/kg i.v., listed as flavoxate
  BLADDER CONTRACTIONS Disappearance time: 8.25 ± 1.90 min
[1]; Rattus norvegicus, iv, 10 min, extrapolated dose inducing 10 min of disappearance of the contractions, linear regression
  ED (10 min disappearance of contractions): > 10 mg/kg
[1]; Rattus norvegicus, iv, read-out: ED50 FREQUENCY (and 95% confidence limits), i.v., quantal criterion (change ≥30% relative to basal value)
  ED50: 2.65 mg/kg
[2]; 300 µg/kg i.v. group
  BVC before treatment: 0.76 ± 0.11 mL
  MP before treatment: 89.2±10.7 mmHg
[2]; 300 µg/kg i.v.
  BVC % change: +14%
  MP % change: +7%
  BVC after treatment: 0.87 ± 0.11 mL
  MP after treatment: 95.0±10.9 mmHg
[2]; 1000 µg/kg i.v. group
  BVC before treatment: 0.88 ± 0.15 mL
  MP before treatment: 90.4±10.7 mmHg
[2]; 1000 µg/kg i.v.
  BVC % change: +26%
  MP % change: -12%
  BVC after treatment: 1.11 ± 0.16 mL
  MP after treatment: 80.1±11.1 mmHg
[2]; 3000 µg/kg i.v. group
  BVC before treatment: 0.77 ± 0.08 mL
  MP before treatment: 72.6±9.3 mmHg
[2]; 3000 µg/kg i.v.
  BVC % change: +39%
  MP % change: +4%
  BVC after treatment: 1.07 ± 0.12 mL
  MP after treatment: 75.2±9.5 mmHg
[2]; conscious rats, i.v., NAN-190 up to the highest administrable dose of 300 µg/kg
  effect on MP (in words): inactive
